In test [1] the target is SWI/SNF-related matrix-associated actin-dependent regulator of chromatin subfamily A member 2 (Homo sapiens, UniProt P51531). As to the kind of experiment: Binding affinity to SMARCA2 (unknown origin) incubated for 30 mins by HTRF assay. (TR-FRET usually uses a lanthanide donor and a delayed reading to cut background.)
Test [2] concerns the target SWI/SNF-related matrix-associated actin-dependent regulator of chromatin subfamily A member 4 (Homo sapiens, UniProt P51532). As to the kind of experiment: Binding affinity to SMARCA4 (unknown origin) incubated for 30 mins by HTRF assay.
The target in test [3] is von Hippel-Lindau disease tumor suppressor (Homo sapiens, UniProt P40337). Briefly: Binding affinity to VHL (unknown origin) incubated for 30 mins by HTRF assay.
For test [4], the target named is T1, von Hippel-Lindau disease tumor suppressor/SWI/SNF-related matrix-associated actin-dependent regulator of chromatin subfamily A member 2 (Homo sapiens, UniProt P51531+P40337). As to the kind of experiment: PROTAC activity at VHL/SMARCA2 in human HT-1080 cells assessed as induction of SMARCA2 degradation incubated for 24 hrs by Nano-Glo HiBiT Lytic Detection Assay. Type of test: cell-based.
Target sequence in this assay (P51531 whole entry): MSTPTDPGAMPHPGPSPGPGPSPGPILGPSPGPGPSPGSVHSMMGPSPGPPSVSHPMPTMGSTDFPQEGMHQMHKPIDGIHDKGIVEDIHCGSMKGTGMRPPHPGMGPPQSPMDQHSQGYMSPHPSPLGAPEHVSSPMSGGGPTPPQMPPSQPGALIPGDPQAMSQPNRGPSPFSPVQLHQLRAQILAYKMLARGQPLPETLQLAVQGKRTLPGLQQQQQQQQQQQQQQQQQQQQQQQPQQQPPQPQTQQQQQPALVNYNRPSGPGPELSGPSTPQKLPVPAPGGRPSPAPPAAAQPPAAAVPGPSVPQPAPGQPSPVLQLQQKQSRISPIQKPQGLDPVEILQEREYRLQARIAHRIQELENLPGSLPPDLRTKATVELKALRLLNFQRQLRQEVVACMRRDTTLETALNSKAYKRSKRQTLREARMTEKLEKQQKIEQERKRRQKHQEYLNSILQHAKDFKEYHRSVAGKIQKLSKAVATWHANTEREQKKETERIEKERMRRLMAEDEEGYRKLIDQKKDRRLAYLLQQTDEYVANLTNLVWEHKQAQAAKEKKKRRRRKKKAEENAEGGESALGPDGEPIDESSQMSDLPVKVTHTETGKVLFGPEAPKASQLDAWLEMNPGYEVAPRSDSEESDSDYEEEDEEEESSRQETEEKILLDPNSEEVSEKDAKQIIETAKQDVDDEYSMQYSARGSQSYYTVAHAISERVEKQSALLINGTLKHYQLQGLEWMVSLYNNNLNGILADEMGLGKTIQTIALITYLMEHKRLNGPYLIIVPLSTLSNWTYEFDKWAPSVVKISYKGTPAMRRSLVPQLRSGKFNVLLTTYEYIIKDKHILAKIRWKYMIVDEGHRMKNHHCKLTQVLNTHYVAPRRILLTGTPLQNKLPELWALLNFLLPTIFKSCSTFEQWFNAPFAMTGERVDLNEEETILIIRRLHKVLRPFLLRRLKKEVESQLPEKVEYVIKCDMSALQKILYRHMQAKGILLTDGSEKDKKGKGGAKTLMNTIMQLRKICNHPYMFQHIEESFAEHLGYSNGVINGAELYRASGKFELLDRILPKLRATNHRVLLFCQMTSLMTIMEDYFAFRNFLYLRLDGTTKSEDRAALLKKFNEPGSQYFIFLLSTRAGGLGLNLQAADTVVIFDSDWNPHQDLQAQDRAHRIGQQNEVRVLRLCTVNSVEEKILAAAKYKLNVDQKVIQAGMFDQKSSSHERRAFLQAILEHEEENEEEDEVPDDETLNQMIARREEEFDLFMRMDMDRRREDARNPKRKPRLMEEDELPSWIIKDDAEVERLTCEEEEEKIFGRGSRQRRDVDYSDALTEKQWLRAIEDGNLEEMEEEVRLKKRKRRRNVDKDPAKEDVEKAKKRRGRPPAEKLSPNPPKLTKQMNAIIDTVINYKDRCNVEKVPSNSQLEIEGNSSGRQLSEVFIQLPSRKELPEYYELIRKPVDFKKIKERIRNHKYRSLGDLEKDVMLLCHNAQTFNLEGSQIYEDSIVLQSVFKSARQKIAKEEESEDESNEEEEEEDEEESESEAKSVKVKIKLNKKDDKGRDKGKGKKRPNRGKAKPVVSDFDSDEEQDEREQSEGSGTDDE
Target sequence in this assay (P40337 whole entry): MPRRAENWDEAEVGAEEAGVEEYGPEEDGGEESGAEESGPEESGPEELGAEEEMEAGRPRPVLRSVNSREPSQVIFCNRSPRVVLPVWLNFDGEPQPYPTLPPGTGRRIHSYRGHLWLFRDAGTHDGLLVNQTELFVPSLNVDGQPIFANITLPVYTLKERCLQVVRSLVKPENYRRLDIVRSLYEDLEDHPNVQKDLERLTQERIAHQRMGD

The target of test [5] is T1, von Hippel-Lindau disease tumor suppressor/SWI/SNF-related matrix-associated actin-dependent regulator of chromatin subfamily A member 2. Briefly: PROTAC activity at VHL/SMARCA2 in human HT-1080 cells assessed as induction of SMARCA2 degradation by measuring maximum efficacy incubated for 6 hrs by Nano-Glo HiBiT Lytic Detection Assay relative to control. Format: cell-based. (The HiBiT peptide binds its large partner to form an active luciferase.)
Target sequence in this assay (P40337 whole entry, looked up): as the sequence (P40337 whole entry) above
Target sequence in this assay (P51531 whole entry, looked up): as the sequence (P51531 whole entry) above

The target in test [6] is T2, von Hippel-Lindau disease tumor suppressor/SWI/SNF-related matrix-associated actin-dependent regulator of chromatin subfamily A member 4 (Homo sapiens, UniProt P51532+P40337). As to the kind of experiment: PROTAC activity at VHL/SMARCA4 in human HT-1080 cells assessed as induction of SMARCA4 degradation incubated for 24 hrs by Nano-Glo HiBiT Lytic Detection Assay. Type of test: cell-based.
Target sequence in this assay (P51532 whole entry): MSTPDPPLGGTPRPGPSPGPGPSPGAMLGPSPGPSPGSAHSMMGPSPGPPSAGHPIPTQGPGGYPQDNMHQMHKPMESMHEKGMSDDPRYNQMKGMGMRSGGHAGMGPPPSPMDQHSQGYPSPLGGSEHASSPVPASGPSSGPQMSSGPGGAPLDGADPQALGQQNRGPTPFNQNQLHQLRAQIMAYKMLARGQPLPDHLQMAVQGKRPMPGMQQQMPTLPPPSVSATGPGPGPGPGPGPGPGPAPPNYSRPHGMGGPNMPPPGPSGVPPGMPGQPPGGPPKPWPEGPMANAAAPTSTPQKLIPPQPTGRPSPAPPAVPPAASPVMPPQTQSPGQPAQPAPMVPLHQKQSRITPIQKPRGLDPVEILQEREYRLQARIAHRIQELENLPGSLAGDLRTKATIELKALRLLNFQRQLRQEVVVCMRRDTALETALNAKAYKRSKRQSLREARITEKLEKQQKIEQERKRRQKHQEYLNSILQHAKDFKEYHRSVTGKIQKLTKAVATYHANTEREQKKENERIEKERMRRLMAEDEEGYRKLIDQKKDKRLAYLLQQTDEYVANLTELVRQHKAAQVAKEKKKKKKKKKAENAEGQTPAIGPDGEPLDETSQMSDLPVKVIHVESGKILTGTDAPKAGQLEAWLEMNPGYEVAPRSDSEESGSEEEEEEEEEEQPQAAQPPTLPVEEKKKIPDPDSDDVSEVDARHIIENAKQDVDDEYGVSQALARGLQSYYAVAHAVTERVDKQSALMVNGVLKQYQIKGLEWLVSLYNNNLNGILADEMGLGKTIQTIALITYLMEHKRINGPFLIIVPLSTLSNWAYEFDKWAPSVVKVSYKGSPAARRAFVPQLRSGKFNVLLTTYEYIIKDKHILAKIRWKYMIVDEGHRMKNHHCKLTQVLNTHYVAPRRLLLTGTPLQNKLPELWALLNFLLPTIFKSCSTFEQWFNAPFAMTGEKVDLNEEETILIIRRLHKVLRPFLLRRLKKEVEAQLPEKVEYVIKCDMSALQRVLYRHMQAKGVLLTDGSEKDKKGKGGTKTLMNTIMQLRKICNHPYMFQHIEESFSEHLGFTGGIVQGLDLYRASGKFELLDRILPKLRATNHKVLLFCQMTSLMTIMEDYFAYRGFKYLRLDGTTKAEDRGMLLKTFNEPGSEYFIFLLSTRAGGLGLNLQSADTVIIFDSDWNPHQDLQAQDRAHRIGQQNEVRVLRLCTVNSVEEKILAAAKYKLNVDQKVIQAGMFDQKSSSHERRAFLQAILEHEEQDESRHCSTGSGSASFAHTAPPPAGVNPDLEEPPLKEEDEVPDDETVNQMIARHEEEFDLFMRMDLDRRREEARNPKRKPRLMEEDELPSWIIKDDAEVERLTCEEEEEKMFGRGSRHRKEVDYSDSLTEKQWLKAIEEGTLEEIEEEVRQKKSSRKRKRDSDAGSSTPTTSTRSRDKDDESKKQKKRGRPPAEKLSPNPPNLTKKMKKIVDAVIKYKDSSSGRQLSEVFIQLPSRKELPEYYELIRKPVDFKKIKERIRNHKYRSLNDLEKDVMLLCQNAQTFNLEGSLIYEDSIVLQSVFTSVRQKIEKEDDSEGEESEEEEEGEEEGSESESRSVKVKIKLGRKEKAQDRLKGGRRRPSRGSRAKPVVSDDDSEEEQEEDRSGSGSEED
Target sequence in this assay (P40337 whole entry): as the sequence (P40337 whole entry) above

The target in test [7] is T2, von Hippel-Lindau disease tumor suppressor/SWI/SNF-related matrix-associated actin-dependent regulator of chromatin subfamily A member 4. As to the kind of experiment: PROTAC activity at VHL/SMARCA4 in human HT-1080 cells assessed as induction of SMARCA4 degradation by measuring maximum efficacy incubated for 6 hrs by Nano-Glo HiBiT Lytic Detection Assay relative to control. Type of test: cell-based.
Target sequence in this assay (P40337 whole entry, looked up): as the sequence (P40337 whole entry) above
Target sequence in this assay (P51532 whole entry, looked up): as the sequence (P51532 whole entry) above

Test [8] in a line: Selectivity ratio of DC50 for PROTAC activity at VHL/SMARCA4 in human HT-1080 cells (unknown origin) to DC50 for VHL/SMARCA2 in human HT-1080 cells (unknown origin). Type of test: cell-based.
In test [9] the target is T1, von Hippel-Lindau disease tumor suppressor/SWI/SNF-related matrix-associated actin-dependent regulator of chromatin subfamily A member 2. As to the kind of experiment: Binding affinity to flag-tagged SMARCA2/VHL (unknown origin) assessed as ternary complex formation by measuring HTRF signal incubated for 120 mins by Envision reader analysis. Format: protein assay.
Target sequence in this assay (P40337 whole entry, looked up): as the sequence (P40337 whole entry) above
Target sequence in this assay (P51531 whole entry, looked up): as the sequence (P51531 whole entry) above
Test [10] concerns NCI-H838. As to the kind of experiment: Antiproliferative activity against human NCI-H838 cells assessed as cell growth inhibition incubated for 6 days by Cell Titer Glo assay. Format: functional. The conditions noted are these: NCI-H838, 144 h, time 6 day. (In ATP-based viability assays light output follows the ATP content of the culture.)
The test system of test [11] is Calu-6. As to the kind of experiment: Antiproliferative activity against human Calu-6 cells assessed as cell growth inhibition incubated for 6 days by Cell Titer Glo assay. Format: functional. The settings on record: Calu-6, 144 h, time 6 day.

Data on 21 molecules can be found in ChEMBL document CHEMBL6096658, “Discovery of Potent, Highly Selective, and Efficacious SMARCA2 Degraders” (J Med Chem, 2025).

Each structure is given as a SMILES string.

Sequence of von Hippel-Lindau disease tumor suppressor (P40337 whole entry): as the sequence (P40337 whole entry) above
Sequence of SWI/SNF-related matrix-associated actin-dependent regulator of chromatin subfamily A member 4 (P51532 whole entry): as the sequence (P51532 whole entry) above
Sequence of SWI/SNF-related matrix-associated actin-dependent regulator of chromatin subfamily A member 2 (P51531 whole entry): as the sequence (P51531 whole entry) above

`CC1(C)c2cc(C3CCNCC3)ccc2-n2c1nc(=O)c1c(Cl)cccc12`: the IC50 (commonly the concentration needed to halve the response being measured) stood at 12 nM in [1] and 36 nM in test [2].

As for `Cc1ncsc1-c1ccc([C@H](C)NC(=O)[C@@H]2C[C@@H](O)CN2C(=O)[C@@H](c2cc(CN3CCC(c4ccc5c(c4)C(C)(C)c4nc(=O)c6c(Cl)cccc6n4-5)CC3)no2)C(C)C)cc1`, the IC50 in test [1] came to 350 nM; in test [2], 500 nM.

For `Cc1ncsc1-c1ccc([C@H](C)NC(=O)[C@@H]2C[C@@H](O)CN2C(=O)[C@@H](c2cc(OC3CCC(N4CCC(c5ccc6c(c5)C(C)(C)c5nc(=O)c7c(Cl)cccc7n5-6)CC4)CC3)no2)C(C)C)cc1` (some centres undefined), the IC50 is 47 nM in test [1], 43 nM in test [2] and 9.3 nM in test [3]. The DC50 (commonly the midpoint of the concentration-degradation curve) is 0.16 nM in test [4] and 1.2 nM in test [6]. Further, the figures for the Emax in [5] and in test [7] were 99% and 97%, respectively. In test [8], the Ratio was determined as 7.5.

Take `O=c1nc2n(c3cccc(Cl)c13)-c1ccc(C3CCNCC3)cc1C21CCCCCC1`: the IC50 in test [1] is 53 nM; in test [2] it was 150 nM.

With `CC1(C)c2ccc(C3CCNCC3)cc2-n2c1nc(=O)c1c(Cl)cccc12`, the IC50 turned out to be 15 nM in [1] and 38 nM in test [2].

Consider `CC1(C)c2cc(C3CCNCC3)ccc2-n2c1nc(=O)c1c(Br)cccc12`, for which the values for the IC50 in test [1] and in test [2] were 2.8 nM and 5.5 nM, respectively.

Consider `Cc1ncsc1-c1ccc([C@H](C)NC(=O)[C@@H]2C[C@@H](O)CN2C(=O)[C@@H](c2cc(N3CCC(CN4CCC(c5cccc6c5C(C)(C)c5nc(=O)c7c(Cl)cccc7n5-6)CC4)CC3)no2)C(C)C)cc1`, for which the IC50 was 150 nM in [1], 83 nM in test [2] and 15 nM in test [3]. Further, the DC50 in test [4] was determined as 4.4 nM; in test [6], 35 nM. For the same molecule, the results for the Emax in [5] and in test [7] were 94% and 84%, respectively. The Ratio in [8] was 8. Besides, the Activity entry in [9] was “Active; Smarca2-Vhl Shows 30% Higher Auc Compared To Smarca4-Vhl Was Observed”.

In test [3], `Cc1ncsc1-c1ccc([C@H](C)NC(=O)[C@@H]2C[C@@H](O)CN2C(=O)[C@@H](NC(=O)[C@H]2CC[C@H](CN3CCC(c4ccc5c(c4)-n4c(nc(=O)c6c(Cl)cccc64)C5(C)C)CC3)CC2)C(C)(C)C)cc1` displayed an IC50 of 370 nM. Also, the DC50 in [4] was 10 nM; in test [6] it was more than 1000 nM. Also, the Emax – broadly, the greatest response seen or fitted, relative to the assay's reference – is 92% in [5] and 25% in test [7]. Moreover, in test [8], the Ratio was more than 100.

On to `Cc1ncsc1-c1ccc([C@H](C)NC(=O)[C@@H]2C[C@@H](O)CN2C(=O)[C@@H](c2cc(OCCCN3CCC(c4ccc5c(c4)C(C)(C)c4nc(=O)c6c(Cl)cccc6n4-5)CC3)no2)C(C)C)cc1`, for which the results for the IC50 in test [1], in [2] and in test [3] were 60 nM, 83 nM and 17 nM, respectively. In addition, the 50% degradation concentration (DC50) in test [4] was found to be 1.4 nM; in test [6], 26 nM. Further, the figures for the Emax in test [5] and in [7] were 98% and 92%, respectively. The Ratio in [8] came to 18.

For `CC1(C)c2c(C3CCNCC3)cccc2-n2c1nc(=O)c1c(Cl)cccc12`, the IC50 is 68 nM in [1] and 170 nM in test [2].

Consider `Cc1ncsc1-c1ccc([C@H](C)NC(=O)[C@@H]2C[C@@H](O)CN2C(=O)[C@@H](NC(=O)[C@H]2CC[C@H](CN3CCC(c4ccc5c(c4)-n4c(nc(=O)c6c(Br)cccc64)C5(C)C)CC3)CC2)C(C)(C)C)cc1`, for which the IC50 in [3] was 280 nM. Moreover, the DC50 was 6.4 nM in test [4] and more than 1000 nM in [6]. Besides, the figures for the Emax in [5] and in [7] were 93% and 34%, respectively. The Ratio in test [8] was more than 100. Further, the GI50 (in general, the concentration giving 50% growth inhibition) in test [10] was 40 nM; in test [11], more than 1000 nM.

Take `O=c1nc2n(c3cccc(Cl)c13)-c1ccc(C3CCNCC3)cc1C21CCCC1`: the IC50 in test [1] worked out at 13 nM; in test [2] it was 24 nM.

Consider `O=c1nc2n(c3cccc(Cl)c13)-c1cc(C3CCNCC3)ccc1C21CCCCC1`, for which the IC50 in [1] was 17 nM; in [2], 40 nM.

For the molecule `Cc1ncsc1-c1ccc([C@H](C)NC(=O)[C@@H]2C[C@@H](O)CN2C(=O)[C@@H](c2cc(OCC3(CN4CCC(c5ccc6c(c5)C(C)(C)c5nc(=O)c7c(Cl)cccc7n5-6)CC4)CC3)no2)C(C)C)cc1`, the results for the IC50 in test [1], in test [2] and in test [3] were 72 nM, 100 nM and 15 nM, respectively. Also, the DC50 in test [4] is 13 nM; in test [6], 280 nM. For the same molecule, the Emax in [5] came to 87%; in test [7] it was 53%. The Ratio in test [8] is 22.

`O=c1nc2n(c3cccc(Cl)c13)-c1ccc(C3CCNCC3)cc1C21CCNCC1`: the values for the IC50 in test [1] and in [2] were 3500 nM and 9100 nM, respectively.

For `O=c1nc2n(c3cccc(Cl)c13)-c1ccc(C3CCNCC3)cc1C21CCCCC1`, the values for the IC50 in test [1] and in test [2] were 8.8 nM and 18 nM, respectively.

For `Cc1ncsc1-c1ccc([C@H](C)NC(=O)[C@@H]2C[C@@H](O)CN2C(=O)[C@@H](c2cc(OCCCCN3CCC(c4ccc5c(c4)C(C)(C)c4nc(=O)c6c(Cl)cccc6n4-5)CC3)no2)C(C)C)cc1`, the half-inhibitory concentration (IC50) in test [1] was determined as 70 nM; in test [2] it was 97 nM; in [3], 16 nM. Further, the half-maximal degradation concentration (DC50) in [4] came out at 1.9 nM; in test [6], 22 nM. The Emax in test [5] is 98%; in test [7], 93%. For the same molecule, the Ratio in test [8] is 12.

Regarding `Cc1ncsc1-c1ccc([C@H](C)NC(=O)[C@@H]2C[C@@H](O)CN2C(=O)[C@@H](c2cc(OCC(C)CN3CCC(c4ccc5c(c4)-n4c(nc(=O)c6c(Cl)cccc64)C5(C)C)CC3)no2)C(C)C)cc1` (some centres undefined), the IC50 in test [1] was 34 nM; in test [2] it was 110 nM; in test [3], 6.2 nM. Also, the DC50 came to 1.7 nM in test [4] and 12 nM in test [6]. Also, the results for the maximal response (Emax) in [5] and in [7] were 97% and 92%, respectively. For the same molecule, in [8], the Ratio was 7.

Take `O=c1nc2n(c3cccc(Br)c13)-c1ccc(C3CCNCC3)cc1C21CCCCC1`: the IC50 is 4.6 nM in [1] and 10 nM in [2].

Regarding `Cc1ncsc1-c1ccc([C@H](C)NC(=O)[C@@H]2C[C@@H](O)CN2C(=O)[C@@H](c2cc(N3CCC(CN4CCC(c5ccc6c(c5)C(C)(C)c5nc(=O)c7c(Cl)cccc7n5-6)CC4)CC3)no2)C(C)C)cc1`, the IC50 in [1] was 16 nM; in test [2] it was 27 nM; in test [3], 6.4 nM. Further, the DC50 stood at 0.61 nM in [4] and 3.9 nM in [6]. Further, in test [5], the Emax amounted to 98%.

For `Cc1ncsc1-c1ccc([C@H](C)NC(=O)[C@@H]2C[C@@H](O)CN2C(=O)[C@@H](c2cc(OCCN3CCC(c4ccc5c(c4)C(C)(C)c4nc(=O)c6c(Cl)cccc6n4-5)CC3)no2)C(C)C)cc1`, the IC50 in [1] was 88 nM; in [2], 79 nM; in test [3], 22 nM. The DC50 stood at 2.1 nM in test [4] and 31 nM in test [6]. The Emax in test [5] stood at 96%; in [7], 80%. Moreover, in [8], the Ratio stood at 15.
